Data taken from patent publication US9827223B2 (priority 2001, dated 2017).
Where two headings read alike, the source gives them in different places.

Tests used:
VR1eGFP [1] = target: T1, VR1eGFP (Rattus norvegicus, UniProt O35433); type: cell-based
T1 construct: expressed in transfected cells; host or cells: Cos7 and HEK293 cells, transient transfection

VR1eGFP-expressing cells = type: cell-based
[2] = rat, in vivo, cited from earlier work
eGFP- and e-tagged VR1 = target: T2, eGFP- and e-tagged VR1 (Rattus norvegicus, UniProt O35433); type: binding
T2 construct: expressed in transfected cells; host or cells: Cos7 cells

[3] = target: T3, VR1ε (C-terminal epsilon epitope-tagged vanilloid 1 receptor) (Rattus norvegicus, UniProt O35433); type: cell-based
T3 construct: expressed in transfected cells; host or cells: NIH 3T3 cells, G418-selected colony A5, pMTH-VR1ε plasmid

trigeminal ganglion [4] = type: in vivo, Sprague Dawley rats
VR1eGFP [5] = target: T1, VR1eGFP; type: cell-based; details: 1 nM
VR1eGFP [6] = target: T1, VR1eGFP; assay: cell-based; details: N=3; read-out: ED50 of induced Ca2+ uptake
[7] = design: species or system Sprague Dawley rats; details: rat, in vivo
trigeminal ganglion [8] = tested on: trigeminal ganglion; design: species or system Sprague Dawley rats; details: rat, in vivo
dorsal root ganglion = tested on: dorsal root ganglion; design: species or system patient; details: human, in vivo
[9] = design: species or system Sprague Dawley rats; details: rat, in vivo; remark: listed apart in the source
[10] = tested on: C-fiber neurons of the trigeminal ganglion; design: species or system Sprague Dawley rats; details: rat, in vivo

T1 sequence (O35433 whole entry): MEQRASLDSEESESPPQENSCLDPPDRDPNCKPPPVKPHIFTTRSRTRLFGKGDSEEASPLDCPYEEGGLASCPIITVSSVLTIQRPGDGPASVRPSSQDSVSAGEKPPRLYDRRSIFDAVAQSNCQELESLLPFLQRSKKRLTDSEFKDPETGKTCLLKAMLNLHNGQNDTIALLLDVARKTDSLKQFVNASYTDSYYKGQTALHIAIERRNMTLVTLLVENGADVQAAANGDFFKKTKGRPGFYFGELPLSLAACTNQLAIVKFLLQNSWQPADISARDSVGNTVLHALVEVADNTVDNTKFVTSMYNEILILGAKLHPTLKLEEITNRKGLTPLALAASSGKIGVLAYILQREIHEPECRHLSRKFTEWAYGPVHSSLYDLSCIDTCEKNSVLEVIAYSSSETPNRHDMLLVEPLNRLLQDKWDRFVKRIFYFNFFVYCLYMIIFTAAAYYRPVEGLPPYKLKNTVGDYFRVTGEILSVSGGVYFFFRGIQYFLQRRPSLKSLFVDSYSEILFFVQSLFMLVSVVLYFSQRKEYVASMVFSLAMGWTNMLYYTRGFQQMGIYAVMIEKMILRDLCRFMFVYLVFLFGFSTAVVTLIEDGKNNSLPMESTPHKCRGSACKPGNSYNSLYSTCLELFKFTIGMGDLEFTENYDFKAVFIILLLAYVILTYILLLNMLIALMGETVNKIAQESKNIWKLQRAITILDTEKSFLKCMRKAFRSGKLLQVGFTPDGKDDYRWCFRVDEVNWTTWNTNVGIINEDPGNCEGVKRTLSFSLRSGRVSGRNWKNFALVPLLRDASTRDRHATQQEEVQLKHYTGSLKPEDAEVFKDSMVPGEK
T2 sequence (O35433 whole entry): as above
T3 sequence (O35433 whole entry): as above

## COc1cc(CNC(=O)CCCC/C=C/C(C)C)ccc1O [capsaicin]
VR1eGFP [1]
  current induced in voltage-clamped VR1eGFP cells: induced a large inward current
VR1eGFP-expressing cells; 1 uM
  mitochondrial reaction: mitochondria reacted rapidly
[2]
  thermal analgesia: No thermal analgesia

## Oc1cc2c(cc1O)CN(C(=S)NCCc1ccc(Cl)cc1)CCC2 [capsazepine]
VR1eGFP [1]
  effect on VR1eGFP-mediated current: attenuated
eGFP- and e-tagged VR1
  inhibition of [3H]RTX binding: almost completely inhibited

## C=C(C)[C@]12C[C@@H](C)[C@@]34O[C@](Cc5ccccc5)(O[C@@H]1[C@@H]3C=C(COC(=O)Cc1ccc(O)c(OC)c1)C[C@]1(O)C(=O)C(C)=C[C@@H]41)O2 [RTX, Resiniferatoxin]
[3]
  45Ca2+-uptake above the base line of non-transfected NIH3T3 cells: > 50 fold
VR1eGFP [1]
  currents and capacitance change in non-transfected cells: neither evoked currents nor induced a change in capacitance
  loss of plasma membrane: about 600 μm^2
  receptor desensitization: complete desensitization
VR1eGFP [1]; 125 pM
  drop of membrane capacitance of VR1eGFP-transfected cells: 6±2.5 pF
Trigeminal ganglion [4]; n=4
  eye wipes in the first minute: 7±3 wipes
Trigeminal ganglion [4]; rat, in vivo
  eye wipes in the first minute: no eye wipes
VR1eGFP [5]
  peak [Ca2+]i: 500 nM
  time to elevation of [Ca2+]i: ≤ 10 s
VR1eGFP [6]
  EC50: 0.1 ± 0.05 nM
[7]
  paw withdrawal latency: 18 ± 1.2 s
Trigeminal ganglion [8]
  plasma extravasation: dramatic blockade
VR1eGFP-expressing cells
  ER, plasma membrane and mitochondria morphology: dramatic fragmentation of the ER
  nuclear membrane fragmentation at lower doses: slower nuclear membrane fragmentation
VR1eGFP-expressing cells; 1 nM
  mitochondrial reaction: mitochondria reacted rapidly
  time to bursting of the plasma membrane: about 45 minutes
Dorsal root ganglion
  symptoms of chronic pain: reduction of the symptoms of chronic pain
[9]
  mechanical pinch sensitivity: No attenuation
[10]
  fate of CGRP-stained cells in the injected ganglion: killed
[2]; sc
  time without restoration of pain sensitivity (thermal analgesia): over 7 days
